# Laboratory results published in PubChem BioAssay AID1250 (SRMLSC, 2008).
# Active and inactive are the calls of the source.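 How the source made its calls: active means inhibition of at least 30% at one or more tested concentrations; inactive means inhibition below 30% at every dose.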
# Experiment: inhibitors of Bluetongue virus cytopathic effect, confirmation, arbovirus, BSR cells (AID 1250)
# Conditions: BSR cells, Bluetongue virus CPE, ATP luminescence, 72 h; at 20 µM (top of the series)
row,Structure (SMILES),CPE inhibition
1,COCCn1c(SCc2nc3scc(-c4ccc(Cl)cc4)c3c(=O)[nH]2)nnc1-c1cccc(C)c1,17.4% (inactive)
2,CCOC1=C/C(=C/c2c(N)n3nc(-c4ccccc4)sc3nc2=O)C=CC1=O,18% (inactive)
3,COCCCNCC1C(Oc2ccc(Cl)cc2)C(=O)N1c1ccccc1C (stereo unspecified),14.4% (inactive)
4,O=C(NC(=S)NCCC1=CCCCC1)c1ccccc1Br,28.5% (inactive)
5,O=C1NC(=O)/C(=C\c2ccc(Oc3ccc([N+](=O)[O-])cn3)cc2)S1,12.8% (inactive)
6,N=C(N)SCc1nc2ccccc2c(=O)n1-c1ccccc1,-4.62% (inactive)
7,O=[N+]([O-])c1cc(/C=N\Nc2nc(-c3ccccc3)cs2)ccc1O,26.1% (inactive)
8,CCc1nnc(NS(=O)(=O)c2ccc(NC(=O)COc3ccc4ccccc4c3)cc2)s1,25.7% (inactive)
9,COc1cc(/C=C/C(=O)c2c(O)n(CCc3ccccc3)c(=O)[nH]c2=O)ccc1O,13% (inactive)
10,CCOC(=O)C1CCCN(Cc2ccccc2Cl)C1 (stereo unspecified),6.31% (inactive)
11,COc1ccccc1NC(=S)NCCSc1ccc(C)cc1,10.1% (inactive)
12,C=CCc1cccc2cc(C(=O)Nc3ccccc3C(=O)O)c(=O)oc12,17.4% (inactive)
13,O=C(O)c1cccc(NC(=S)NC(=O)c2ccc(-c3ccc(Cl)cc3)o2)c1,29.9% (inactive)
14,Cc1ccc(S(=O)(=O)Oc2ccc(C)cc2/C=N/N=C2\NC(=O)C(C)S2)cc1 (stereo unspecified),25.2% (inactive)
15,CCCn1c2c(c(O)c(C(=O)Nc3nc4ccccc4s3)c1=O)CCCC2,19.3% (inactive)
16,O=C1N=c2ccccc2=C1c1sc(Nc2ccc(O)cc2)nc1O,14.8% (inactive)
17,O=C(O)/C(=C\c1ccc(-c2ccc(F)cc2)o1)c1ccccc1,24.5% (inactive)
18,O=C(O)c1c(NC(=O)c2cccc3ccccc23)sc2c1CCC2,0.01% (inactive)
19,O=C(NNC(=O)c1cccs1)c1ccc([N+](=O)[O-])cc1,4.62% (inactive)
20,CCc1nnc(NC(=O)c2cc3ccccc3oc2=O)s1,-0.17% (inactive)
21,O=C(NNC(=S)NC1CCCCC1)c1ccc(Cl)s1,28.3% (inactive)
22,COc1ccc(-c2csc(Nc3ncccc3C)n2)cc1OC,14.9% (inactive)
23,CC1CC(C)(C)CC2(C1)NC(=O)N(CC(=O)NCCc1c[nH]c3ccccc13)C2=O (stereo unspecified),23.6% (inactive)
24,COc1ccc(C(=O)Nc2cc(Cl)ccc2C(=O)O)cc1,17.7% (inactive)

row,Structure (SMILES),CPE inhibition
1,O=C/C(=C\Nc1ccc(Cl)cn1)c1nc2cc(Cl)ccc2o1,10.2% (inactive)
2,O=C(CCn1c(=O)sc2ccccc21)NCCCn1ccnc1,4.88% (inactive)
3,O=C(Nc1nc2ccccc2s1)c1ccc(OCC2CCCO2)cc1 (stereo unspecified),5.66% (inactive)
4,Cc1nn(C)cc1CN(C)Cc1ccc(OCC(O)CN2CCCCC2)cc1 (stereo unspecified),11.1% (inactive)
5,CCOc1ccc(-n2c(=O)[nH]c3sc4c(c3c2=O)CCCC4)cc1,16.6% (inactive)
6,O=C(c1ccc2ccccc2n1)N1CCN(c2ccccc2Cl)CC1,8.76% (inactive)
7,COc1cccc(-n2c(C)cc(/C=C3/C(=N)N4C(=NC3=O)SN=C4S(C)(=O)=O)c2C)c1,19.6% (inactive)
8,COc1cccc(C2=CC(c3ccc(N(C)C)cc3)n3ncnc3N2)c1 (stereo unspecified),8.59% (inactive)
9,O=C(O)c1csc(N/N=C/c2ccc(Br)cc2)n1,8.09% (inactive)
10,O=C(O)c1cc(-c2ccc(/C=N/Nc3ccc([N+](=O)[O-])cn3)o2)ccc1Cl,21.4% (inactive)
11,O=C(Nc1sc2c(c1C(=O)O)CCCC2)c1cccs1,25.3% (inactive)
12,CCCC(=O)Nc1cccc(NC(=O)c2ccc([N+](=O)[O-])cc2Cl)c1,1.21% (inactive)
13,CCOC(=O)C(NC(=O)c1cccc(Cl)c1)(OCc1ccc(F)cc1)C(F)(F)F (stereo unspecified),-3.2% (inactive)
14,CCOC(=O)C1(Cc2cccc(OC)c2)CCN(Cc2cccc(OC)c2O)CC1,24.8% (inactive)
15,Cc1cc(F)ccc1S(=O)(=O)Nc1ncnc2scc(-c3ccc(F)cc3)c12,21.7% (inactive)
16,CCCc1cc2c(OC(=O)CC)c(-c3ccc(C(=O)OCC)o3)c(=O)oc2cc1OC,19.6% (inactive)
17,CCOC(=O)c1c(O)c2c(n(Cc3ccco3)c1=O)CCCC2,14.7% (inactive)
18,CNc1ccccc1C(C)(C)c1cc(-c2cccc(OC)c2)no1,7.83% (inactive)
19,O=C1CC(N2CCC(Cc3ccccc3)CC2)C(=O)N1CCc1ccccc1 (stereo unspecified),3.89% (inactive)
20,Cc1ccc(C2CC(=O)c3cnn(-c4nc(C)cc(C)n4)c3C2)cc1 (stereo unspecified),5.7% (inactive)
21,O=C(Nc1ccc(OC(F)(F)F)cc1)c1[nH]ncc1[N+](=O)[O-],25.3% (inactive)
22,Cc1nn(Cc2ccccc2)c(Cl)c1C(=O)NC1CCCc2ccccc21 (stereo unspecified),16.5% (inactive)
23,COc1ccccc1/C=C/C=C1N=C(/C=C/c2ccc(Cl)cc2)OC/1=O,25.2% (inactive)
24,Cc1cccc(/C(N)=N/OC(=O)COc2ccc(Cl)cc2)c1,5.92% (inactive)

row,Structure (SMILES),CPE inhibition
1,CC1Cc2ccccc2N1C(=O)CSc1ccccc1 (stereo unspecified),-1.84% (inactive)
2,O=CNCC(=O)NCCc1ccc(Cl)cc1,1.49% (inactive)
3,O=C(Nc1ccccc1C(=O)O)c1cccc(NC(=O)c2ccc(Br)o2)c1,7.57% (inactive)
4,Cc1ccccc1-n1nc(CSc2nc3ccccc3[nH]2)c(-c2ccccc2)c1N,14.9% (inactive)
5,COc1ccc(CCN(C)Cc2ccc(F)cc2F)cc1OC,3.03% (inactive)
6,CC1=NN(c2nc(-c3ccc(Cl)cc3)cs2)C(=O)C1,8.37% (inactive)
7,O=C(CCl)N=c1sccn1Cc1cccc2ccccc12,7.67% (inactive)
8,N#C/C(=C\c1cn[nH]c1-c1ccc(Cl)cc1)C(=O)NCc1ccccc1,12.6% (inactive)
9,COC(=O)c1ccccc1NC(=O)C1CCN(C(=O)c2cc(OC)c(OC)c(OC)c2)CC1,1.96% (inactive)
10,COC(=O)c1ccc(NC(=O)c2ccccc2NS(C)(=O)=O)cc1,22.4% (inactive)
11,CCSc1nnc(NC(=O)c2ccc(Br)s2)s1,16.8% (inactive)
12,O=C(Nc1c(-c2ccccc2)nc2ccccn12)c1cccs1,20.6% (inactive)
13,O=C(Nc1nc2ccccc2s1)c1ccc(N2CCCCC2)c([N+](=O)[O-])c1,22.1% (inactive)
14,CC1CC1C(=O)Nc1nc(-c2ccc(Cl)s2)cs1 (stereo unspecified),12% (inactive)
15,COc1ccc(CCNCC(O)c2ccccc2)cc1 (stereo unspecified),13.7% (inactive)
16,O=C1CC(c2cccc([N+](=O)[O-])c2)c2ccc3ccccc3c2N1 (stereo unspecified),8.81% (inactive)
17,COC(=O)Nc1ccc(S(=O)(=O)N2CCC(C(=O)N(C)C3CCCCC3)CC2)cc1,4.71% (inactive)
18,CS(=O)(=O)C1=NSC2=NC(=O)/C(=C\c3cccn3-c3ccccc3Cl)C(=N)N21,8.16% (inactive)
19,O=c1oc(/C=C/c2ccco2)nc2sc3c(c12)CCC3,21.9% (inactive)
20,COc1ccc2c(C)cc(Sc3nnnn3-c3ccccc3)nc2c1,20.9% (inactive)
21,O=C(CSc1ccccc1)Nc1cc(Cl)ccc1Oc1ccccc1,3.1% (inactive)
22,C=CCn1c(SCC(=O)Nc2nc3ccccc3s2)nnc1-c1ccccc1O,21.1% (inactive)
23,Fc1ccccc1N1CCN(c2ncnc3[nH]ncc23)CC1,7.21% (inactive)
24,O=c1/c(=C/c2ccc(O)cc2)sc2n1CCCN=2,1.41% (inactive)

row,Structure (SMILES),CPE inhibition
1,Cc1ccc(C)c(N2CCN(C(=O)Cc3ccc(-n4c(=O)[nH]c5ccsc5c4=O)cc3)CC2)c1,13.2% (inactive)
2,O=C(Nc1ccn(Cc2ccccc2)n1)c1n[nH]c([N+](=O)[O-])c1Cl,14% (inactive)
3,COc1ccc(-c2nc(C3CCCCC3)no2)cc1OC,8.02% (inactive)
4,O=C(N/N=C/c1c(O)n(CCc2ccccc2)c(=O)[nH]c1=O)c1ccncc1,7.83% (inactive)
5,COC1=C/C(=C/c2c(N)n3nc(-c4ccc(C)cc4)sc3nc2=O)C=CC1=O,29.9% (inactive)
6,CCSc1nc2c(sc3nc(C)cc(C)c32)c(=O)[nH]1,18% (inactive)
7,COc1ccc(Cl)cc1NC(=O)C1COc2ccccc2O1 (stereo unspecified),26.3% (inactive)
8,CC(=O)Nc1ccc(SCC(=O)N(CCC#N)c2cc(C)cc(C)c2)cc1,18% (inactive)
9,CCOC(=O)c1c(-c2ccc(C)c(C)c2)csc1NC(=O)C1CC=CCC1C(=O)O (stereo unspecified),29.6% (inactive)
10,CCOC(=O)c1nn(-c2ccc(Cl)cc2)c2nc(Nc3ccccc3)cc(=O)n12,28.9% (inactive)
11,CCOC(=O)c1c(-c2ccccc2)csc1NC(=S)N(CC)CC,10.8% (inactive)
12,CC(C)CC1=NN2C(=N)/C(=C\c3coc4ccccc4c3=O)C(=O)N=C2S1,13.5% (inactive)
13,C=CCOc1ccc(Br)cc1/C=C1/SC(=Nc2ccc(C(=O)O)cc2)NC1=O,10.2% (inactive)
14,O=C(CSc1nccc(=O)[nH]1)N1N=C2/C(=C/c3ccco3)CCCC2C1c1ccco1 (stereo unspecified),21.5% (inactive)
15,O=c1c(-c2ccccc2)c[nH]n1-c1cccc([N+](=O)[O-])c1,14.9% (inactive)
16,C/C(C/C(C)=C1/SC(=S)NC1=O)=C1\SC(=S)NC1=O,6.76% (inactive)
17,O=C(CSCc1ccccc1)Nc1cccc(C(=O)Nc2ccccc2C(=O)O)c1,9.16% (inactive)
18,O=C(Nc1ccccc1C(=O)O)c1ccc2ccccc2n1,16.2% (inactive)
19,COc1ccc(/C=C2/C(=O)N(CC3CCCO3)C(=S)N2C)c(OC)c1 (stereo unspecified),1.63% (inactive)
20,O=C(O)c1cc(N/N=C2/CC(c3ccccc3)Oc3ccccc32)ccc1Cl (stereo unspecified),16.6% (inactive)
21,CCCCCCCCCCCC(=O)NC(C(=O)O)C(O)c1ccccc1 (stereo unspecified),11.5% (inactive)
22,CC(C)(CO)CNC(=O)CC1C(=O)NCCN1CC(c1ccccc1)c1ccccc1 (stereo unspecified),1.48% (inactive)
23,CCOC(=O)CSc1nc2c(sc(=S)n2-c2ccc(OCC)cc2)c(=O)[nH]1,19.1% (inactive)
24,COc1ccc2[nH]c(=O)c(CN(CCCN(C)C)C(=O)Nc3ccc(F)cc3)cc2c1,7.66% (inactive)
